Results reported in US20190117555A1, “SUBLINGUAL COMPOSITIONS COMPRISING NATURAL EXTRACTS AND USES THEREOF” (HARMONIC PHARMA, priority 2016, published 2019).

How the values were obtained:
[1] = Oxygen Radical Absorbance Capacity (ORAC) assay; conditions: n=4
Excerpt: 2.3. Oxygen Radical Absorbance Capacity (ORAC) Assay
(Ou B., Hampsch-Woodill M. and Prior R. L.: “Development and Validation of an Improved Oxygen Radical Absorbance Capacity Assay Using Fluorescein as the Fluorescent Probe”, J. Agric. Food Chem., 2001, 49 (10), 4619-4626)
Measurement of antioxidant capacity by the ORAC method is based on the detection of fluorescence drop of fluorescein (FL) thanks to its reaction with peroxyl radical ROO*, in a food matrix containing antioxidant compounds. Fluorescence was read with an excitation wavelength of 485 nm and an emission filter of 528 nm. AAPH solution and FL were prepared in a phosphate buffer solution at 75 mM at pH 7.4. The control of this reaction is the trolox which is also prepared in the same buffer. Six different quantities (10, 20, 35, 50, 70, 80 μl) of product with concentration of 0.5 mg/L were placed in the wells of the microplate with FL and adjusted at the same volume with buffer solution (80 μl). The mixture was preincubated for 30 min at 37° C., before rapidly adding the AAPH solution (220 μl) using a multichannel pipette. The microplate was immediately placed in the reader and the fluorescence recorded every 6 min for 240 min. A blank with FL and AAPH using sodium phosphate buffer instead of the antioxidant solution was used. The inhibition capacity was expressed as reference compound equivalents (μM), and is quantified by integrating of the area under the curve (AUC) of the fluorescein. The assays were carried out in quadruplicate (n=4). Efficacy of the tested samples is expressed as reference ORAC units per gram of products (the higher value corresponds to the stronger antioxidant activity).

[2] = Trolox Equivalent Antioxidant Capacity (TEAC) assay; conditions: per 1 g of product; FIG. 2
Description: Trolox Equivalent Antioxidant Capacity (TEAC) Assay
ABTS radical cation (ABTS•+) was produced by reacting 7 mM ABTS stock solution with 2.45 mM potassium persulfate and allowing the mixture to stand in the dark at room temperature for 12-16 h before being used. Next ABTS•+solution was diluted with PBS (Phosphate Buffer Saline) (pH 7.4) to an absorbance of 0.5 at 734 nm and equilibrated at 30° C. 200 μl of ABTS•+ and (10, 20, 35, 50, 70, 80 μl) of product solutions (0.5 mg/L) was mixed and adjusted to 300 μl with buffer solution. After 15 min incubation, the optical density was measured. The assays were performed in quadruplicate (n=4). Efficacy is expressed as a value of EC50 (the smaller value of EC50 corresponds to the stronger antioxidant activity).

[3] = Total AntiOxidant Power (PAOT) assay; conditions: for total antioxidant efficacy (PAOT): n=4, FIG. 3 and 4
Description: 2.4. Total AntiOxidant Power (PAOT®) Assay (Oxidative Stress)
Technology PAOT/POT® (Total AntiOxidant Power/Total Oxidant Power) is based on the electrochemical nature of redox reactions: a balance between antioxidants and oxidants [www.ie-antioxydants.com]. The assays were carried out in quadruplicate (n=4) (The higher value corresponds to the best antioxidant efficacy).

IL-1β = IL-1β release by LPS-stimulated PBMCs (HTRF); format: cell-based; conditions: Homo sapiens, PBMC, 5 μg/mL LPS, 24 h, read-out: % inhibition IL-1β (Standard deviation)
Description: (§1) Interleukin-1beta (IL-1beta) and tumor necrosis factor-alpha (TNF-alpha) mediate the development of numerous inflammatory diseases. IL-1beta and TNF-alpha therefore constitute suitable biomarkers to characterize the anti-inflammatory property of compounds of the part of branch extracts of the invention.
(§2) Peripheral blood mononuclear cells (PBMCs) were prepared from the peripheral blood of healthy donors (Etablissement Français du Sang) according to Kümmerle et al. (J Med Chem. 2012, 55, 7525-7545) with slight modifications. PBMCs were isolated using Histopaque gradient (Sigma), washed in Hanks' balanced salt solution (Sigma) and were then cultured in RPMI-1640 medium (Sigma) supplemented with 10% (v/v) fetal bovine serum (FBS) (PAA), 100 U/mL penicillin and 100 μg/mL streptomycin (PAA). PBMCs were seeded into 96-well plates (8×10^4 cells/well) and stimulated with 5 μg/mL LPS (Lipopolysaccharides, Sigma), into a total volume of 120 μL per well. HMR was re-suspended in DMSO and tested at 10, 30, and 100 μM (DMSO 1%) in duplicate. […] Cells incubation was realized at 37° C. (5% CO2).
(§3) After 24 h, PBMCs supernatants were transferred into a 384-well plate. Cytokine detection was performed using HTRF technology (Cisbio bioassays) for TNF-α (62TNFPEC), IL-1β (62IL1PEC) according to supplier recommendations. Reading was performed after 3 h of incubation using Envision multi-labelled reader (PerkinElmer) using supplier recommended parameters.

Human COX-2 = biological target: T1, Human COX-2 (Homo sapiens, UniProt P35354); test: Human COX-2 inhibition assay; format: biochemical; conditions: HMR 10 μM; extract equiv. 10 μM
T1 sequence (P35354 18-604): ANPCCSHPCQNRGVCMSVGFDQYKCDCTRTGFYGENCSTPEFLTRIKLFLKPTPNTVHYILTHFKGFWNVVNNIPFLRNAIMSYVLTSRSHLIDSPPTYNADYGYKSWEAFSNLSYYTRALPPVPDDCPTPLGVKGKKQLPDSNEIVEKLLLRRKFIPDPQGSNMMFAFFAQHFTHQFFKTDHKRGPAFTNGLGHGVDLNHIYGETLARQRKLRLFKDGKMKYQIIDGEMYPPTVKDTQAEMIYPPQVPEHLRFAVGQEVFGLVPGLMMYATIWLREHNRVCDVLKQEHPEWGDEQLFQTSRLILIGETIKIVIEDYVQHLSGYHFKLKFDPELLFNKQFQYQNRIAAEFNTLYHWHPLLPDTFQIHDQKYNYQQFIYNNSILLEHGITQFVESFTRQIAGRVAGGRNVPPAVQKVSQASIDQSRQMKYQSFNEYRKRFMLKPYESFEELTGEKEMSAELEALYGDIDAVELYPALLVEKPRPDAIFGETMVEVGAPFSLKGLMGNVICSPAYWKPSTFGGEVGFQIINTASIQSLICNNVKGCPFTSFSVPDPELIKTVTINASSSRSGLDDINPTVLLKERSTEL
Excerpt: The results are expressed as a percent inhibition of the control enzyme activity.

Human 5-LO = biological target: T2, Human 5-LO (Homo sapiens, UniProt P09917); test: Human 5-LO inhibition assay; format: biochemical; conditions: HMR 10 μM; extract equiv. 10 μM
T2 sequence (P09917 1-674): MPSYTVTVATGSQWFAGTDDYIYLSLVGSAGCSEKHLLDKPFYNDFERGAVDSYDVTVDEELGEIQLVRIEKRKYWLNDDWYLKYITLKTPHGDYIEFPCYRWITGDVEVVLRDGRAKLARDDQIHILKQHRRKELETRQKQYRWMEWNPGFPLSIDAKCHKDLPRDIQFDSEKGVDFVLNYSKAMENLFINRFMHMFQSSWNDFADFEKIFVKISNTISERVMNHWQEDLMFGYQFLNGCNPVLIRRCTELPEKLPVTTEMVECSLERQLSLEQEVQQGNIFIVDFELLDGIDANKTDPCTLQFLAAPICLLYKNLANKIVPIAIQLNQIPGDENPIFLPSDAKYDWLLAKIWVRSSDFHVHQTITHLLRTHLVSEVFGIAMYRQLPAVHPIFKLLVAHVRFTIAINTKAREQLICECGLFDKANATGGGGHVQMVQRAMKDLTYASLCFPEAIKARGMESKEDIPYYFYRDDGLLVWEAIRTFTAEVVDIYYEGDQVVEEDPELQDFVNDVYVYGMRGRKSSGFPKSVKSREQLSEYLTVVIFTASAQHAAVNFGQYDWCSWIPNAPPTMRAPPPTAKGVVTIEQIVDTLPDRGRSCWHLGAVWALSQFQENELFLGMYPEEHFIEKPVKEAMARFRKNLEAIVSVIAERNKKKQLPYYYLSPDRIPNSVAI
Description: Human 5-LO Inhibition Assay:
The test compound, reference compound or water (control) were preincubated for 5 min at room temperature with 10^4 lysed cells/well in a buffer containing 50 mM Tris-HCl (pH 7.4), 5 mM CaCl2, 2 mM EDTA, 1 μM ATP and 50 nM fluorescent probe dihydrorhodamine 123. The fluorescence intensity was then measured at λex=485 nm and λem=535 nm using a microplate reader (Envision, Perkin Elmer). This measurement at t=0 allowed the detection of any compound interference with the fluorimetric detection method at these wavelengths. Thereafter, the reaction was initiated by adding 25 μM of the substrate arachidonic acid and the mixture was incubated for 20 min at room temperature. The reaction was stopped by adding a buffer containing 67% acetonitrile and 0.2% acetic acid and the fluorescence intensity emitted by the reaction product rhodamine 123 was measured at the same wavelengths (t=20). The enzyme activity was determined by subtracting the signal measured at t=0 from that measured at t=20.
The results are expressed as a percent inhibition of the control activity.

TNF-α = TNF-α release by LPS-stimulated PBMCs (HTRF); format: cell-based; conditions: Homo sapiens, PBMC, 5 μg/mL LPS, 24 h, read-out: % inhibition TNF-α (Standard deviation)
Description: as §1, §2, §3

Structure (SMILES)	μmol Trolox/g tested product [1]	μmol Vit. C/g tested product [1]	μmol Vit. E/g tested product [1]	μmol β-carotene/g tested product [1]	antioxidant activity of 1 g of product equivalent to g of trolox [2] [g]	antioxidant activity of 1 g of product equivalent to g of vitamin E [2] [g]	total antioxidant efficacy (PAOT) [3]	inhibition at 10 µM (IL-1β; 10 μM) [%]	inhibition at 30 µM (IL-1β; 30 μM) [%]	inhibition at 100 µM (IL-1β; 100 μM) [%]	antioxidant activity with regard to Trolox ([3]; reference Trolox)	antioxidant activity with regard to Vitamin E ([3]; reference Vitamin E (tocopherol))	antioxidant activity with regard to β-carotene ([3]; reference β-carotene)	inhibition at 10 µM (Human COX-2) [%]	inhibition at 10 µM (Human 5-LO) [%]	inhibition at 10 µM (TNF-α; 10 μM) [%]	inhibition at 30 µM (TNF-α; 30 μM) [%]	inhibition at 100 µM (TNF-α; 100 μM) [%]
OC[C@H](Cc1cccc(O)c1)[C@H](CO)Cc1cccc(O)c1 [enterodiol]	500 ± 60 μmol Trolox/g tested product	700 ± 100 μmol Vit. C/g tested product	600 ± 80 μmol Vit. E/g tested product	165 ± 5 μmol β-carotene/g tested produ	0.15	0.22	1.07 mmol/g equivalent of antioxidant											
COc1cc(C[C@H]2C(=O)OC[C@@H]2[C@H](O)c2ccc(O)c(OC)c2)ccc1O (stereo in doubt) [HMR, Hydroxymatairesinol]	210 ± 50 μmol Trolox/g tested product	110 ± 10 μmol Vit. C/g tested product	105 ± 10 μmol Vit. E/g tested product	27 ± 2 μmol β-carotene/g tested produ			4.99 mmol/g equivalent of antioxidant	10	25	28	0.62 gram of reference compound per gram of tested product	1.07 gram of reference compound per gram of tested product	2.68 gram of reference compound per gram of tested product	18.7	14.7	7	15	26
O=C1OC[C@H](Cc2cccc(O)c2)[C@H]1Cc1cccc(O)c1 [enterolactone]	560 ± 50 μmol Trolox/g tested product	110 ± 10 μmol Vit. C/g tested product	105 ± 10 μmol Vit. E/g tested product	30 ± 2 μmol β-carotene/g tested produ	0.13	0.19	1.06 mmol/g equivalent of antioxidant											
